The record followed here is patent US6338963B1, “Use of carbon monoxide dependent guanylyl cyclase modifiers to stimulate neuritogenesis” (NeoTherapeutics, Inc., priority 1994, dated 2002).

Values joined by “and” are separate entries in the source; they are usually repeats but may differ in a detail not shown here. Identical values can stand only once.

Data set [1] is described as follows: Brain tissue levels of AIT-082 (HPLC). Format: in vivo, C57BL/6 mice. To be noted: for Level of AIT-082 in brain tissue: 30 mg/kg i.p., 30 minutes after administration, 30 mg/kg.
For data set [2], the system named is cultured neurons from rat cerebral cortex. The data set can be described thus: NMDA-induced toxicity in cultured rat cortical neurons, astrocyte conditioned medium. Format: cell-based. To be noted: CM from astrocytes treated 6 hours with AIT-082. Here is the method: In these experiments, cultured neurons were prepared from rat cerebral cortex. In these cultures the NMDA pulse (100 μM for 10 min) provoked about 80% neuronal death (measured by Trypan blue cell staining or LDH activity). Separately, cultured astrocytes were treated for 6 hours with AIT-082. Then, the medium containing the drug was replaced with fresh medium without the drug and the astrocyte cultures were maintained in this medium for the next 24 hours. This medium represented the CM and was added to neurons soon after the toxic pulse with NMDA. The addition of CM partly counteracted the toxic effects caused by NMDA, reducing the neuronal damage by about 50%. If the medium was boiled for 20 min at 100° C. prior to addition to NMDA-damaged neurons, it completely lost the protective activity. […] To verify whether the neuroprotection caused by AIT-082 was ascribable to the production of TGFβ2 or NGF, antibodies to TGFβ2 or to NGF (100 ng/ml) were added together with CM.
Conversely, when DPCPX (100 nm) was added to astrocyte cultures together with AIT-082, the neuroprotective effect of the resulting CM deriving from the culture of the astrocytes with AIT-082 was reduced by only 20%, as compared to the neuroprotective effect of CM derived from astrocytes exposed to AIT-082 alone (assumed as equal to 100%).

A further data set deals with NGF. Put plainly: Two-site ELISA of growth factor protein in rat brain and spinal cord: NGF. Format: in vivo, F344 rats. As to the method: (§1) Adult female F344 rats were given either AIT-082 (doses: 30 mg/kg/day or a higher dose of 30 mg/ml (˜3,000 mg/kg/day); n=6 rats per group) in their drinking water, or water alone, as a vehicle for control. The duration of the study was seven days, at which time the rats were anesthesized and perfused with ice-cold saline. The brains of the rats were rapidly removed. The brains were placed on a chilled glass plate and dissected into the following regions: basal forebrain, frontal cortex, parietal cortex, cerebellum, spinal cord, and hippocampal formation. Tissues were stored at −70° C. until assayed in a specific two-site ELISA for either NGF, BDNF, NT-3, or GNDF.
The results are shown in FIGS. 45 (BDNF), 46 (NT-3), 47 (GDNF) and 48 (NGF). For the results shown in FIGS. 45-48, animals were given only water (VEH, n=6) or water with AIT-082 at either 30 mg/kg/day (n=6) or 30 mg/ml (n=6) for seven days. The levels of each growth factor were determined in the frontal cortex (F. Cor.), parietal cortex (P.Cor.), hippocampal formation (Hipp.), basal forebrain (B.F.), cerebellum (Cer.), or spinal cord (Cord) using a specific two-site ELISA for each growth factor.
Adult female rats were given AIT-082 (30 mg/kg/day) in their drinking water or drinking water alone (n=6 for each group) for seven days prior to receiving a bilateral fimbria fornix transection (FFT).
The results are shown in FIGS. 49 (BDNF), 50 (NT-3), 51 (GDNF) and 52 (NGF). […] Levels of the growth factor were determined in frontal cortex (F.Cor.), parietal cortex (P.Cor.), hippocampal formation (Hipp.), basal forebrain (B.F.), cerebellum (Cer.), or spinal cord (Cord) using a specific two-site ELISA for each growth factor. […]
Results are shown in FIGS. 53 (BDNF), 54 (NT3), 55 (GDNF), and 56 (NGF). […] Levels of each growth factor were determined in frontal cortex (F.Cor.), parietal cortex (P. Cor.), hippocampal formation (Hipp.), basal forebrain (B.F.), cerebellum (Cer.) or spinal cord (Cord) using a specific two-site ELISA.
On the technique in general: In an ELISA, binding on a coated surface is turned into a signal by an enzyme label.

The nature of data set [3]: Appearance and weight during one week in drinking water. Format: in vivo, F344 rats. To be noted: 30 mg/kg/day and ~3,000 mg/kg/day in drinking water. As to the method: as §1
This effect was not seen in animals treated with AIT-082 at 3000 mg/kg/day.

For another data set, the system named is neocortical astrocytes. The data set can be described thus: NGF-like immunoreactivity in astrocyte culture medium (ELISA). Format: cell-based, mouse. To be noted: astrocytes incubated with different concentrations. As to the method: Astrocytes appear to proliferate in response to extracellular guanosine or guanosine triphosphate (GTP). GTP or guanosine may also stimulate the release of trophic factors from cultures of neocortical astrocytes from neonatal mouse brains. Astrocytes were incubated with different concentrations of guanosine or GTP respectively. Neurotrophin imunoreactivity in the culture medium from treated cells was then measured by ELISA.
Briefly, 96 well Falcon plates (Fisher) were coated with […] of sheep mono-specific anti-NGF IgG (affinity column purified) contained in 0.1M sodium carbonate buffer pH 9.6. After an overnight incubation at 4° C. blocking solution (PBS with 10% goat serum) was added to remove excess antibody. After a four hour incubation at room temperature the plates were washed three times with PBS containing 0.05% Tween 20. The conditioned media and standard 2.5S HPLC purified NGF were added and incubated overnight. The next day plates were washed 3 times with PBS-0.05% Tween 20. The secondary antibody, rabbit mono-specific anti-NGF IgG conjugated with β-galactosidase (Pierce-SPDP method) (1:500 dilution) was added. The plates were incubated overnight at 4° C. The next day the plates were washed 3 times with PBS-0.05% Tween 20. […]
The ELISA assay detected neurotrophins NGF and NT-3 with ahnost equal affinity and BDNF with 100 times less affinity. […]

Regarding `O=C(CCn1cnc2c(=O)[nH]cnc21)Nc1ccc(C(=O)O)cc1` [AIT-082, N-4-carboxyphenyl-3-(6-oxohydropurin-9-yl)propanamide], the “level detected in brain” value in data set [1] (30 minutes after oral administration) was at most 3.3 ng/mg brain tissue. The “Level of AIT-082 in brain tissue” value in data set [1] (Cortex) is 2.8 ng/mg brain tissue and 3.4 ng/mg brain tissue; in data set [1] (Remainder of brain), 2.3 ng/mg brain tissue and 3.3 ng/mg brain tissue. The “passage of the blood-brain barrier” value in data set [1] (brain tissue after 30 minutes) is on record as “crosses the blood-brain barrier without degradation”. The “reduction of neuronal damage caused by NMDA” value in data set [2] is “about 50%”. Further, the NGF protein levels entry in the data set on NGF (FFT-lesioned rats, 30 mg/kg/day) was “No significant increases”; in the data set on NGF (aged rats, 30 mg/kg/day 30 days, any brain region), “no effect”; with NGF (intact adult rats) it was “No changes”. In addition, the appearance and weight result in data set [3] is “appeared normal and showed no overt signs of weight loss”.
With `Nc1nc2c(ncn2[C@@H]2O[C@H](CO)[C@@H](O)[C@H]2O)c(=O)[nH]1` [guanosine], the “NGF-like immunoreactivity in the culture medium” value in the data set on neocortical astrocytes is on record as “increased the amount of NGF-like immunoreactivity”.
